PubChem BioAssay AID652053 (Broad Institute, 2013)

Test system: Huh7 psiCHECK-miR122 Renilla luciferase reporter, 48 h
Experiment: miR-122 inhibitors in Huh7 reporter cells, dose response, cell-based, Huh7 psiCHECK-miR122, Renilla luciferase, cherry-pick (AID 652053)

| Compound | AC40 |
| --- | --- |
| COc1ccc(S(=O)(=O)NC2CC3CCC2C3)cc1Cl (stereo not given) | 4.66 µM |
| O=C1C(Oc2ccccc2)C(c2ccc3c(c2)OCO3)N1CCc1ccc(F)cc1 (stereo not given) | 8.01 µM |
| Cc1cc(Cl)c(S(=O)(=O)NCc2ccccc2)cc1OCC(N)=O | 8.54 µM |
| COc1ccc(S(=O)(=O)N2CC[C@@H]3[C@@H](CO)N(C)c4ccc(-c5ccc(F)cc5)cc4[C@@H]32)cc1 | 6.93 µM |
| O=C(c1ccc(F)cc1)N1C[C@@H]2[C@H](c3ccccc31)[C@H](CO)N2C(=O)c1ccc(F)cc1 | 2.35 µM |
| C[C@H](CO)N1C[C@H](C)[C@@H](CN(C)Cc2ccc(Oc3ccccc3)cc2)Oc2c(NC(=O)c3ccncc3)cccc2C1=O | 2.42 µM |
| CCOc1cc(C)c(Cl)cc1S(=O)(=O)NCc1ccco1 | 1.79 µM |
| Cc1ccc(S(=O)(=O)NC(=NCc2ccccc2)c2ccc(F)cc2)cc1 | 5.08 µM |
| CCN(CC)c1ccc(NC(=O)c2ccccn2)cc1S(=O)(=O)Nc1ccccc1OC | 4.42 µM |
| NC(=O)Cn1cc(/C=N\NS(=O)(=O)c2ccc(F)cc2)c2ccccc21 | 3.22 µM |
| CC(=O)Nc1ccc(S(=O)(=O)Nc2ccc3c(c2)n(C)c(=O)n3C)c(C)c1 | 3.94 µM |
| COc1ccc(S(=O)(=O)Nc2cc(C)ccc2OC)cc1C | 3.63 µM |
| Cc1ccc(S(=O)(=O)Nc2ccc3ccccc3c2)cc1 | 7.08 µM |
| Cc1ccc(N(CC(=O)NCc2cccs2)S(=O)(=O)c2cccs2)cc1 | 29 µM |
| Cc1ccc(NS(=O)(=O)c2cc(C(=O)Nc3cccc([N+](=O)[O-])c3)ccc2C)cc1 | 2.5 µM |
| O=C(Nc1sc2c(c1C(=O)O)CCC2)c1cccs1 | 9.16 µM |
| CCC(=O)NC(=S)Nc1ccc(S(=O)(=O)NC2CCCCC2)cc1 | 1.1 µM |
| Cc1cc(Cl)c(Cl)cc1S(=O)(=O)NCCCn1ccnc1 | 2.79 µM |
| O=C(c1ccc(NS(=O)(=O)c2ccc3c(c2)OCCO3)cc1)N1CCCCC1 | 14.8 µM |
| O=C(CSc1nnc(-c2cc3ccccc3cc2O)n1Cc1ccco1)c1ccc(F)cc1 | 5.74 µM |
| C[C@@H]1CN([C@H](C)CO)C(=O)c2cc(NC(=O)Nc3ccccc3)ccc2O[C@@H]1CN(C)S(=O)(=O)c1ccc(Cl)cc1 | 5.33 µM |
| CCOc1ccc(Br)cc1S(=O)(=O)Nc1ccc(Cl)c(S(=O)(=O)N(CC)c2ccccc2)c1 | 4.18 µM |
| C[C@@H]1CN([C@@H](C)CO)C(=O)Cc2cc(N(C)C)ccc2O[C@@H]1CN(C)Cc1ccc(C(=O)Nc2ccccc2N)cc1 | 10 µM |
| C=C(C)CN(CC)C(=O)COc1ccc(S(=O)(=O)Nc2ccc(OC)cc2)cc1 | 7.78 µM |
| Fc1cccc(NC(=S)NC2CCCCCCC2)c1 | 4.22 µM |

| Compound | AC40 |
| --- | --- |
| Cc1cc(C)c(C)c(S(=O)(=O)NC2CCN(Cc3ccccc3)CC2)c1C | 9.53 µM |
| O=C(c1ccccc1F)N1C[C@@H]2[C@H](c3ccccc31)[C@H](CO)N2C(=O)c1ccc(F)cc1 | 21 µM |
| C[C@H](CO)N1C[C@H](C)[C@H](CN(C)Cc2ccc(C(=O)Nc3ccccc3N)cc2)Oc2ccc(NC(=O)Nc3ccccc3)cc2CC1=O | 5.91 µM |
| CC(=O)N1c2c(cc(Br)cc2S(=O)(=O)NCc2ccccc2)CC1C (stereo not given) | 5.96 µM |
| Cc1cc(C)cc(NS(=O)(=O)c2ccc(F)cc2)c1 | 10.9 µM |
| Cc1ccc(NS(=O)(=O)c2cc(C(=O)NCc3ccncc3)ccc2C)cc1 | 2.82 µM |
| COc1ccc(C)cc1S(=O)(=O)Nc1ccc(F)cc1 | 1.04 µM |
| O=C(CN(C1CCCCC1)S(=O)(=O)c1ccc(F)cc1)Nc1ccc2c(c1)OCO2 | 6.36 µM |
| O=S(=O)(Nc1ccc(C(O)(C(F)(F)F)C(F)(F)F)cc1)c1cccc2ccccc12 | 1.45 µM |
| CC(=O)N1CCc2cc(S(=O)(=O)Nc3cccc(C(F)(F)F)c3)ccc21 | 2.92 µM |
| Cc1cc(C)cc(NS(=O)(=O)c2cc(Br)cnc2N)c1 | 0.656 µM |
| O=S(=O)(NCc1cccnc1)c1ccc(Cl)c2ccccc12 | 4.69 µM |
| CCC1=Nc2cc(C(=O)NCc3ccco3)ccc2Sc2ccc(C)cc21 | 4.49 µM |
| COc1ccc(CNS(=O)(=O)c2cc(-c3cc(C)no3)ccc2C(C)C)cc1 | 3.69 µM |
| O=C(Nc1ccc(N2CCOCC2)c(S(=O)(=O)Nc2cc(Cl)ccc2Cl)c1)c1cccnc1 | 0.681 µM |
| Cc1ccc(C)c(S(=O)(=O)Nc2ccc3scnc3c2)c1 | 0.899 µM |
| CC(=O)Nc1ccc(S(=O)(=O)C(C#N)c2nc3ccccc3nc2NCCO)cc1 (stereo not given) | 25.9 µM |
| CCc1c(C(=O)NC2CCCCC2)[nH]c(C)c1C(C)=O | 4.84 µM |
| Cc1ccc(C2CC(c3cccs3)=NN2S(=O)(=O)c2ccc(C)cc2)cc1 (stereo not given) | 8.19 µM |
| O=S(=O)(NCc1ccco1)c1ccc2ccccc2c1 | 2.62 µM |
| CCCn1c(N)c(C(=O)CSc2nnc(Cc3cccs3)n2C2CC2)c(=O)n(C)c1=O | 7.17 µM |
| CC1CCCN(C(=O)Cn2nnc(-c3cccnc3)n2)C1 (stereo not given) | 14.4 µM |
| COc1ccccc1C(=O)Nc1ccc2c(c1)C(=O)N(C)[C@H]1CC[C@@H](CC(=O)NCc3ccc(Cl)c(Cl)c3)O[C@H]1CO2 | 0.359 µM |
| Cc1ccnc(NCc2cc(C)ccc2O)c1 | 29.8 µM |
| O=C(C1CCCCC1)N1C[C@H]2[C@@H](c3ccccc31)[C@@H](CO)N2C(=O)c1ccccc1 | 1.37 µM |

| Compound | AC40 |
| --- | --- |
| C[C@@H]1CN([C@@H](C)CO)C(=O)Cc2cc(N(C)C)ccc2O[C@H]1CN(C)Cc1ccc(C(=O)Nc2ccccc2N)cc1 | 10.1 µM |
| Cc1cccc(NS(=O)(=O)c2cc3c4c(c2)CCC(=O)N4CCC3)c1 | 1.94 µM |
| O=C(NCCCn1ccnc1)c1cccc(S(=O)(=O)Nc2ccc(F)cc2)c1 | 3.77 µM |
| CCOc1ccc(Br)cc1S(=O)(=O)NCc1ccncc1 | 1.9 µM |
| C[C@H](CO)N1C[C@H](C)[C@@H](CN(C)Cc2ccc3c(c2)OCO3)Oc2c(NC(=O)Nc3ccccc3)cccc2C1=O | 8.95 µM |
| O=C(Cc1ccccc1)N1CC[C@@H]2[C@@H](CO)Nc3ccc(-c4cccc(F)c4)cc3[C@@H]21 | 7.15 µM |
| CCOc1ccccc1N(CC(=O)N1CCCCCC1)S(=O)(=O)c1ccc(C)cc1 | 1.23 µM |
| COc1ccccc1NS(=O)(=O)c1cc(NC(=O)c2sccc2C)ccc1N1CCCC1 | 1.12 µM |
| c1ccc(-n2nnnc2-c2cccc3ccccc23)cc1 | 10.6 µM |
| O=C(C(=O)N(Cc1ccccc1)Cc1ccccc1)c1c(-c2ccccc2)[nH]c2ccccc12 | 1 µM |
| O=S(=O)(c1ccccc1)N1C[C@H]2[C@@H](c3ccccc31)[C@@H](CO)N2Cc1ccc2c(c1)OCO2 | 8.56 µM |
| COc1ccc(S(=O)(=O)N(C)C[C@H]2Oc3ccc(NC(=O)Cc4ccccc4)cc3C(=O)N([C@H](C)CO)C[C@H]2C)cc1 | 2.75 µM |
| O=C(c1ccc(F)cc1)N1C[C@H]2[C@@H](c3ccccc31)[C@@H](CO)N2C(=O)c1ccc(F)cc1 | 1.59 µM |
| Cc1ccc(C)c(S(=O)(=O)Nc2ccc3cn[nH]c3c2)c1 | 3.58 µM |
| CCc1ccc(S(=O)(=O)Nc2ccc(Cl)cn2)cc1 | 8.84 µM |
| CN(C)S(=O)(=O)c1ccc(NS(=O)(=O)/C=C/c2ccccc2)cc1 | 2.27 µM |
| O=C(Cc1cccc2ccccc12)Nc1ccc(OC(F)F)c(Cl)c1 | 4.28 µM |
| CSc1ccc(S(=O)(=O)NC2CC3CCC2C3)cc1 (stereo not given) | 5.6 µM |
| COc1ccc(S(=O)(=O)NCCc2c(C)nn(C)c2Oc2ccccc2)cc1 | 4.82 µM |
| COc1ccc(NS(=O)(=O)c2cc(NC(=O)c3ccc(=O)[nH]n3)ccc2C)cc1 | 5.01 µM |
| COc1ccccc1CN1[C@H](CO)[C@@H]2c3ccccc3N(C(=O)c3ccc(F)cc3)C[C@@H]21 | 30 µM |
| Cc1ccc(C)c(S(=O)(=O)Nc2cc3c4c(c2)CCC(=O)N4CCC3)c1 | 0.678 µM |
| COc1cccc(CNS(=O)(=O)c2cc(-c3cc(C)no3)ccc2C(C)C)c1 | 5.07 µM |
| COc1ccc(C)cc1S(=O)(=O)Nc1cccc(SC)c1 | 0.582 µM |
| C[C@@H]1CN([C@@H](C)CO)C(=O)c2cccc(NS(=O)(=O)c3ccccc3)c2O[C@@H]1CN(C)Cc1ccc(C(=O)Nc2ccccc2N)cc1 | 9.09 µM |

| Compound | AC40 |
| --- | --- |
| O=C(Cc1ccccc1)N1C[C@H]2[C@@H](c3ccccc31)[C@@H](CO)N2C(=O)c1ccc(F)cc1 | 5.37 µM |
| C[C@H](CO)N1C[C@H](C)[C@@H](CN(C)C(=O)Nc2ccc(F)cc2)Oc2c(NS(=O)(=O)c3ccccc3)cccc2C1=O | 20.4 µM |
| COc1cc(NS(=O)(=O)c2ccc(OC)c(C)c2C)c(OC)cc1Cl | 3.5 µM |
| C[C@H](CO)N1C[C@H](C)[C@H](CN(C)Cc2ccc(C(=O)Nc3ccccc3N)cc2)Oc2ccc(NC(=O)Nc3cccc4ccccc34)cc2CC1=O | 16.9 µM |
| FC(F)(F)c1cccc(NC(=S)NCCc2ccccn2)c1 | 2.88 µM |
| Cc1ccc(C)c(S(=O)(=O)Nc2ccc3sc(C)nc3c2)c1 | 1.5 µM |
| Fc1cccc(Cn2cc(C(=S)N3CCOCC3)c3ccccc32)c1 | 21 µM |
| COc1ccc(NS(=O)(=O)c2cc(NC(=O)c3ccc(=O)[nH]c3)ccc2N2CCCC2)cc1 | 0.424 µM |
| COc1cc(C(CCN2CCOCC2)c2c(OC)cc(OC)c3c(-c4ccccc4)cc(=O)oc23)cc(OC)c1OC (stereo not given) | 1.2 µM |
| COc1ccccc1-c1nnc2sc(-c3ccc(N(C)C)cc3)nn12 | 7.44 µM |
| C/C(=N\NC(=O)c1ccccc1O)C1C(=O)c2ccccc2C1=O | 18.1 µM |
| COc1ccc(NS(=O)(=O)c2cc(OC)ccc2OC)cc1 | 5.31 µM |
| CCNS(=O)(=O)c1cc(Br)ccc1OC | 3.4 µM |
| CCOC(=O)c1cc(S(=O)(=O)Nc2cccc(OC)c2)cn1C | 1.84 µM |
| C[C@H](CO)N1C[C@H](C)[C@@H](CN(C)CC2CCCCC2)Oc2c(NC(=O)C3CC3)cccc2C1=O | 0.602 µM |
| CCCNC(=O)C[C@@H]1CC[C@H]2[C@H](COc3ccc(NC(=O)Nc4ccccc4F)cc3C(=O)N2C)O1 | 2.53 µM |
| C[C@@H]1CN([C@H](C)CO)C(=O)c2cc(NC(=O)c3ccncc3)ccc2O[C@@H]1CN(C)S(=O)(=O)c1ccc(Cl)cc1 | 1.63 µM |
| CC1CCN(C(=O)CN(c2ccc3c(c2)OCCO3)S(=O)(=O)c2ccccc2)CC1 | 2.51 µM |
| C[C@@H]1CN([C@@H](C)CO)C(=O)c2cccc(NS(=O)(=O)c3ccc(F)cc3)c2O[C@@H]1CN(C)Cc1ccc(C(=O)Nc2ccccc2N)cc1 | 10.4 µM |
| CCn1c(=O)c2cc(S(=O)(=O)NC3CCCCC3)ccc2n(CC)c1=O | 3.31 µM |
| Cc1cc(C)cc(NS(=O)(=O)c2ccc(NC(=S)NC(=O)c3ccc(Br)o3)cc2)c1 | 0.769 µM |
| Cc1cc(Br)ccc1NC(=S)NCCc1ccccc1 | 9.65 µM |
| O=C(Nc1sc2c(c1C(=O)O)CCCCC2)c1ccco1 | 2.49 µM |
| O=C(c1ccccc1)C(O)(Cc1ccccc1)c1ccccc1 (stereo not given) | 8.14 µM |
| COc1ccccc1NS(=O)(=O)c1cc(C(=O)NCc2ccco2)ccc1C | 13.5 µM |
